Data taken from BindingDB's records for doi:10.1016/j.bmcl.2006.07.074 (Boehringer Ingelheim Pharmaceuticals, 2006).

Biological target: DNA-directed RNA polymerase II (Bos taurus)
Experiment: Inhibition of calf thymus DNA dependent RNA polymerase 2

- IC50: > 125 µM
SMILES: O=C(O)c1ccc2c(C3CCCCC3)c(-c3ccoc3)[nH]c2c1 [3-cyclohexyl-2-(furan-3-yl)-1H-indole-6-carboxylic acid]
